Measured values reported in US11345700B2, “Methods of preparing inhibitors of influenza viruses replication” (priority 2013, dated 2022).
Where two headings read alike, the source gives them in different places. Marks after values point to notes of the source that are not given here.

Columns and labels:
[1] = tested on: influenza A/Wisconsin/67/2005 (H3N2) challenge strain virus; assay: Human influenza challenge: clinical and influenza-like symptom scores; assay type: in vivo, healthy volunteers (humans)
Method: (§1) Subjects underwent thrice daily nasal swabs, and kept thrice daily score cards for clinical symptoms from Days 1-7, and were discharged from the facility on Day 8, with safety follow-up at approximately Day 28. Nasal swabs were assayed for influenza virus in cell culture (primary analysis) and by qRT-PCR (secondary analysis).
Subjects recorded clinical symptoms three times a day in diaries. An AUC of clinical and influenza-like symptom scores from Day 1 through Day 7 was calculated.

influenza A strains = assay: microbe, parasite or virus in culture; assay type: cell-based
[2] = tested on: influenza A/Wisconsin/67/2005 (H3N2) challenge strain virus; assay: Human influenza challenge: nasal influenza shedding by qRT-PCR; assay type: in vivo, healthy volunteers (humans)
Method: as §1

influenza B virus = assay: Antiviral activity in MDCK cells measured by ATP levels (CellTiter-Glo), influenza B; assay type: cell-based; settings: read-out: Cell Protection Assay EC50 ± SD
[3] = Human influenza challenge: safety assessment, adverse events; assay type: in vivo, healthy volunteers (humans)
Description: A list of adverse events occurring in ≥10% of subjects in any treatment group is presented (Table 29). Influenza-like illness was the most frequently reported adverse event, and was reported by an approximately equal proportion of subjects in the placebo and Compound (1) groups.

[4] = tested on: Influenza A/Vietnam/1203/2004 (H5N1) virus; assay type: in vivo, BALB/c mice; settings: 10 mg/kg p.o. twice a day for 10 days; Treatment (+48 h)
influenza A = assay: Mouse model of influenza A: lung viral titers; assay type: in vivo, mice; settings: for Log10 Reduction vs. Vehicle: study day 6; for Lung Viral Titer: titers on study day 6
[5] = Pooled Compound (1) dose groups (N = 52)
[6] = Study 1, 30 mg/kg BID from 24 h post infection for 5 days
[7] = Study 2, 3 mg/kg BID from 24 h post infection for 5 days
[8] = Study 2, 10 mg/kg BID from 24 h post infection for 5 days
[9] = Study 2, 30 mg/kg BID from 24 h post infection for 5 days

## O=C(O)[C@H]1[C@H]2CC[C@H](CC2)[C@@H]1Nc1nc(-c2c[nH]c3ncc(F)cc23)ncc1F [Compound (1)]
[1]; 100 mg QD (N = 12)
  Composite Clinical Symptom AUC, median: 1.85 Grade*Day
  Composite Clinical Symptom Duration, median: 3.21 days
  Composite Clinical Symptom Peak, mean: 3.17 Grade
  Influenza like Symptom AUC, median: 1.85 Grade*Day
  Influenza like Symptom Duration, median: 3.21 days
  Influenza like Symptom Peak, mean: 2.75 Grade
[1]; 400 mg QD (N = 12)
  Composite Clinical Symptom AUC, median: 4.70 Grade*Day
  Composite Clinical Symptom Duration, median: 3.34 days
  Composite Clinical Symptom Peak, mean: 2.83 Grade
  Influenza like Symptom AUC, median: 3.80 Grade*Day
  Influenza like Symptom Duration, median: 3.34 days
  Influenza like Symptom Peak, mean: 2.42 Grade
[1]; 900/600 mg (N = 14)
  Composite Clinical Symptom AUC, median: 1.75 Grade*Day
  Composite Clinical Symptom Duration, median: 2.69 days
  Composite Clinical Symptom Peak, mean: 3.71 Grade
  Influenza like Symptom AUC, median: 1.75 Grade*Day
  Influenza like Symptom Duration, median: 2.69 days
  Influenza like Symptom Peak, mean: 3.21 Grade
[1]; 1200/600 mg (N = 14)
  Composite Clinical Symptom AUC, median: 1.95 Grade*Day
  Composite Clinical Symptom Duration, median: 1.88 days
  Composite Clinical Symptom Peak, mean: 1.50 Grade
  Influenza like Symptom AUC, median: 1.75 Grade*Day
  Influenza like Symptom Duration, median: 1.88 days
  Influenza like Symptom Peak, mean: 1.36 Grade
[1]; [5]
  Composite Clinical Symptom AUC, median: 2.15 Grade*Day
  Composite Clinical Symptom Duration, median: 2.34 days
  Composite Clinical Symptom Peak, mean: 2.79 Grade
  Influenza like Symptom AUC, median: 2.05 Grade*Day
  Influenza like Symptom Duration, median: 2.34 days
  Influenza like Symptom Peak, mean: 2.42 Grade
Influenza A strains; ATCC 2 / H1N1, MDCK, read-out: Cell Protection Assay EC50 ± SD
  EC50: 1.9 ± 3 nM
Influenza A strains; ATCC 3 / H1N1, MDCK, read-out: Cell Protection Assay EC50 ± SD
  EC50: 1.9 ± 3.2 nM
Influenza A strains; H1N1, MDCK, in Sus scrofa, read-out: Cell Protection Assay EC50 ± SD, A/Swine/1976/31, H1N1
  EC50: 0.47 ± 0.11 nM
Influenza A strains; H1N1, MDCK, in Sus scrofa, read-out: Cell Protection Assay EC50 ± SD, A/Swine/Iowa/15/30, H1N1
  EC50: 0.65 ± 0.082 nM
Influenza A strains; H1N1, MDCK, read-out: Cell Protection Assay EC50 ± SD, A/New Jersey/8/76, H1N1
  EC50: 0.2 ± 0.096 nM
Influenza A strains; H3N8, MDCK, in Equus caballus, read-out: Cell Protection Assay EC50 ± SD, A/Equine/2/Miami/63, H3N8
  EC50: 0.5 ± 0.065 nM
[2]; 100 mg QD (N = 12)
  Viral Sheeding by qRT-PCR AUC, median: 6.05 log10 copies/mL*Day
  Viral Sheeding by qRT-PCR Duration, median: 0.96 days
  Viral Sheeding by qRT-PCR Peak, mean: 4.36 log10 TCID50/mL
[2]; 400 mg QD (N = 12)
  Viral Sheeding by qRT-PCR AUC, median: 4.90 log10 copies/mL*Day
  Viral Sheeding by qRT-PCR Duration, median: 1.36 days
  Viral Sheeding by qRT-PCR Peak, mean: 3.90 log10 TCID50/mL
[2]; 900/600 mg (N = 14)
  Viral Sheeding by qRT-PCR AUC, median: 10.65 log10 copies/mL*Day
  Viral Sheeding by qRT-PCR Duration, median: 2.39 days
  Viral Sheeding by qRT-PCR Peak, mean: 5.08 log10 TCID50/mL
[2]; 1200/600 mg (N = 14)
  Viral Sheeding by qRT-PCR AUC, median: 0.45 log10 copies/mL*Day
  Viral Sheeding by qRT-PCR Duration, median: 0.00 days
  Viral Sheeding by qRT-PCR Peak, mean: 2.37 log10 TCID50/mL
[2]; [5]
  Viral Sheeding by qRT-PCR AUC, median: 3.45 log10 copies/mL*Day
  Viral Sheeding by qRT-PCR Duration, median: 0.71 days
  Viral Sheeding by qRT-PCR Peak, mean: 3.91 log10 TCID50/mL
Influenza B virus; B/Russia/69
  EC50: > 10 nM
Influenza B virus; Influenza B virus, MDCK, B/Lee/40
  EC50: > 10 nM
[3]; 100 mg to 1200/600 mg QD for 5 days, healthy volunteers
  tolerability: well tolerated
[3]; 100 mg, N = 16
  Adverse event: Alanine aminotransferase increased: 3 (18.8) n(%)
  Adverse event: Aspartate aminotransferase increased: 1 (6.3) n(%)
  Adverse event: Blood phosphorus decreased: 3 (18.8) n(%)
  Adverse event: Dermatitis contact: 3 (18.8) n(%)
  Adverse event: Headache: 1 (6.3) n(%)
  Adverse event: Influenza-like illness: 8 (50.0) n(%)
  Adverse event: Malaise: 2 (12.5) n(%)
  Adverse event: Nasal congestion: 0 n(%)
  Adverse event: Nausea: 0 n(%)
  Adverse event: Oropharylngeal pain: 2 (12.5) n(%)
  Adverse event: Rhinorrhea: 0 n(%)
  Adverse event: Spirometry abnormal: 2 (12.5) n(%)
  Adverse event: Tension Headache: 0 n(%)
[3]; 400 mg, N = 19
  Adverse event: Alanine aminotransferase increased: 1 (5.3) n(%)
  Adverse event: Aspartate aminotransferase increased: 1 (5.3) n(%)
  Adverse event: Blood phosphorus decreased: 0 n(%)
  Adverse event: Dermatitis contact: 0 n(%)
  Adverse event: Headache: 4 (21.1) n(%)
  Adverse event: Influenza-like illness: 10 (52.6) n(%)
  Adverse event: Malaise: 0 n(%)
  Adverse event: Nasal congestion: 0 n(%)
  Adverse event: Nausea: 2 (10.5) n(%)
  Adverse event: Oropharylngeal pain: 0 n(%)
  Adverse event: Rhinorrhea: 2 (10.5) n(%)
  Adverse event: Spirometry abnormal: 4 (21.1) n(%)
  Adverse event: Tension Headache: 2 (10.5) n(%)
[3]; 900/600 mg, N = 19
  Adverse event: Alanine aminotransferase increased: 0 n(%)
  Adverse event: Aspartate aminotransferase increased: 0 n(%)
  Adverse event: Blood phosphorus decreased: 6 (31.6) n(%)
  Adverse event: Dermatitis contact: 0 n(%)
  Adverse event: Headache: 0 n(%)
  Adverse event: Influenza-like illness: 9 (47.4) n(%)
  Adverse event: Malaise: 0 n(%)
  Adverse event: Nasal congestion: 0 n(%)
  Adverse event: Nausea: 1 (5.3) n(%)
  Adverse event: Oropharylngeal pain: 1 (5.3) n(%)
  Adverse event: Rhinorrhea: 0 n(%)
  Adverse event: Spirometry abnormal: 0 n(%)
  Adverse event: Tension Headache: 1 (5.3) n(%)
[3]; 1200/600 mg, N = 18
  Adverse event: Alanine aminotransferase increased: 6 (33.3) n(%)
  Adverse event: Aspartate aminotransferase increased: 2 (11.1) n(%)
  Adverse event: Blood phosphorus decreased: 4 (22.2) n(%)
  Adverse event: Dermatitis contact: 0 n(%)
  Adverse event: Headache: 2 (11.1) n(%)
  Adverse event: Influenza-like illness: 7 (38.9) n(%)
  Adverse event: Malaise: 0 n(%)
  Adverse event: Nasal congestion: 1 (5.6) n(%)
  Adverse event: Nausea: 0 n(%)
  Adverse event: Oropharylngeal pain: 0 n(%)
  Adverse event: Rhinorrhea: 1 (5.6) n(%)
  Adverse event: Spirometry abnormal: 4 (22.2) n(%)
  Adverse event: Tension Headache: 0 n(%)
[3]; Compound (1) groups
  adverse event incidence: decreased blood phosphorus level: 18.1%
  adverse event incidence: nasal congestion: 1.4%
  adverse event incidence: rhinorrhea: 4.2%
[3]; Pooled Compound (1), N = 72
  Adverse event: Alanine aminotransferase increased: 10 (13.9) n(%)
  Adverse event: Aspartate aminotransferase increased: 4 (5.6) n(%)
  Adverse event: Blood phosphorus decreased: 13 (18.1) n(%)
  Adverse event: Dermatitis contact: 3 (4.2) n(%)
  Adverse event: Headache: 7 (9.7) n(%)
  Adverse event: Influenza-like illness: 34 (47.2) n(%)
  Adverse event: Malaise: 2 (2.8) n(%)
  Adverse event: Nasal congestion: 1 (1.4) n(%)
  Adverse event: Nausea: 3 (4.2) n(%)
  Adverse event: Oropharylngeal pain: 3 (4.2) n(%)
  Adverse event: Rhinorrhea: 3 (4.2) n(%)
  Adverse event: Spirometry abnormal: 10 (13.9) n(%)
  Adverse event: Tension Headache: 3 (4.2) n(%)
[3]; healthy volunteers, five daily doses
  discontinuations due to Compound (1)-related adverse events; serious adverse events: no discontinuations
[3]; observed in both placebo and Compound (1) recipients
  alanine aminotransferase (ALT): elevations in alanine aminotransferase (ALT) were observed
[4]
  MDD ± SD (mean day of death of mice that died on or before day 21): >21
  Mean Lung Parameters (Day 6): Virus Titer: 3.75 ± 0.94 Log10 CCID50/g
  Survivors/Total: 10/10
Influenza A; [6]
  Log10 Reduction vs. Vehicle: −2.25***
  Lung Viral Titer: 3.95 Log10 TCID50
Influenza A; [7]
  Log10 Reduction vs. Vehicle: −1.04
  Lung Viral Titer: 5.24*** Log10 TCID50
Influenza A; [8]
  Log10 Reduction vs. Vehicle: −1.08
  Lung Viral Titer: 5.20*** Log10 TCID50
Influenza A; [9]
  Log10 Reduction vs. Vehicle: −1.75
  Lung Viral Titer: 4.53*** Log10 TCID50
